Patent US9586951B2 (FUJIFILM Corporation, priority 2013, dated 2017)

Biological target: T1, ATM (Homo sapiens, UniProt Q13315)
T1 construct: detecting phosphorylation of Chk2 in a human non-small cell lung cancer cell line NCI-H460 (ATCC company); host or cells: NCI-H460 human non-small cell lung cancer cells
Test: ATM inhibition test (phosphorylation of Chk2 generated by ionizing radiation, AlphaScreen SureFire)
Assay type: cell-based
Details: phosphorylated Chk2 in NCI-H460 cells, ionizing radiation 8Gy, 1 hour after test compound treatment; read-out: ATM inhibitory activity
In short: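 Human NCI-H460 lung cancer cells were treated with compound for 1 h, then irradiated at 8Gy and incubated 1 h at 37° C. Phospho-Chk2 was quantified by AlphaScreen SureFire; inhibition % was normalised between irradiated untreated and non-irradiated untreated wells.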

T1 sequence (Q13315 whole entry): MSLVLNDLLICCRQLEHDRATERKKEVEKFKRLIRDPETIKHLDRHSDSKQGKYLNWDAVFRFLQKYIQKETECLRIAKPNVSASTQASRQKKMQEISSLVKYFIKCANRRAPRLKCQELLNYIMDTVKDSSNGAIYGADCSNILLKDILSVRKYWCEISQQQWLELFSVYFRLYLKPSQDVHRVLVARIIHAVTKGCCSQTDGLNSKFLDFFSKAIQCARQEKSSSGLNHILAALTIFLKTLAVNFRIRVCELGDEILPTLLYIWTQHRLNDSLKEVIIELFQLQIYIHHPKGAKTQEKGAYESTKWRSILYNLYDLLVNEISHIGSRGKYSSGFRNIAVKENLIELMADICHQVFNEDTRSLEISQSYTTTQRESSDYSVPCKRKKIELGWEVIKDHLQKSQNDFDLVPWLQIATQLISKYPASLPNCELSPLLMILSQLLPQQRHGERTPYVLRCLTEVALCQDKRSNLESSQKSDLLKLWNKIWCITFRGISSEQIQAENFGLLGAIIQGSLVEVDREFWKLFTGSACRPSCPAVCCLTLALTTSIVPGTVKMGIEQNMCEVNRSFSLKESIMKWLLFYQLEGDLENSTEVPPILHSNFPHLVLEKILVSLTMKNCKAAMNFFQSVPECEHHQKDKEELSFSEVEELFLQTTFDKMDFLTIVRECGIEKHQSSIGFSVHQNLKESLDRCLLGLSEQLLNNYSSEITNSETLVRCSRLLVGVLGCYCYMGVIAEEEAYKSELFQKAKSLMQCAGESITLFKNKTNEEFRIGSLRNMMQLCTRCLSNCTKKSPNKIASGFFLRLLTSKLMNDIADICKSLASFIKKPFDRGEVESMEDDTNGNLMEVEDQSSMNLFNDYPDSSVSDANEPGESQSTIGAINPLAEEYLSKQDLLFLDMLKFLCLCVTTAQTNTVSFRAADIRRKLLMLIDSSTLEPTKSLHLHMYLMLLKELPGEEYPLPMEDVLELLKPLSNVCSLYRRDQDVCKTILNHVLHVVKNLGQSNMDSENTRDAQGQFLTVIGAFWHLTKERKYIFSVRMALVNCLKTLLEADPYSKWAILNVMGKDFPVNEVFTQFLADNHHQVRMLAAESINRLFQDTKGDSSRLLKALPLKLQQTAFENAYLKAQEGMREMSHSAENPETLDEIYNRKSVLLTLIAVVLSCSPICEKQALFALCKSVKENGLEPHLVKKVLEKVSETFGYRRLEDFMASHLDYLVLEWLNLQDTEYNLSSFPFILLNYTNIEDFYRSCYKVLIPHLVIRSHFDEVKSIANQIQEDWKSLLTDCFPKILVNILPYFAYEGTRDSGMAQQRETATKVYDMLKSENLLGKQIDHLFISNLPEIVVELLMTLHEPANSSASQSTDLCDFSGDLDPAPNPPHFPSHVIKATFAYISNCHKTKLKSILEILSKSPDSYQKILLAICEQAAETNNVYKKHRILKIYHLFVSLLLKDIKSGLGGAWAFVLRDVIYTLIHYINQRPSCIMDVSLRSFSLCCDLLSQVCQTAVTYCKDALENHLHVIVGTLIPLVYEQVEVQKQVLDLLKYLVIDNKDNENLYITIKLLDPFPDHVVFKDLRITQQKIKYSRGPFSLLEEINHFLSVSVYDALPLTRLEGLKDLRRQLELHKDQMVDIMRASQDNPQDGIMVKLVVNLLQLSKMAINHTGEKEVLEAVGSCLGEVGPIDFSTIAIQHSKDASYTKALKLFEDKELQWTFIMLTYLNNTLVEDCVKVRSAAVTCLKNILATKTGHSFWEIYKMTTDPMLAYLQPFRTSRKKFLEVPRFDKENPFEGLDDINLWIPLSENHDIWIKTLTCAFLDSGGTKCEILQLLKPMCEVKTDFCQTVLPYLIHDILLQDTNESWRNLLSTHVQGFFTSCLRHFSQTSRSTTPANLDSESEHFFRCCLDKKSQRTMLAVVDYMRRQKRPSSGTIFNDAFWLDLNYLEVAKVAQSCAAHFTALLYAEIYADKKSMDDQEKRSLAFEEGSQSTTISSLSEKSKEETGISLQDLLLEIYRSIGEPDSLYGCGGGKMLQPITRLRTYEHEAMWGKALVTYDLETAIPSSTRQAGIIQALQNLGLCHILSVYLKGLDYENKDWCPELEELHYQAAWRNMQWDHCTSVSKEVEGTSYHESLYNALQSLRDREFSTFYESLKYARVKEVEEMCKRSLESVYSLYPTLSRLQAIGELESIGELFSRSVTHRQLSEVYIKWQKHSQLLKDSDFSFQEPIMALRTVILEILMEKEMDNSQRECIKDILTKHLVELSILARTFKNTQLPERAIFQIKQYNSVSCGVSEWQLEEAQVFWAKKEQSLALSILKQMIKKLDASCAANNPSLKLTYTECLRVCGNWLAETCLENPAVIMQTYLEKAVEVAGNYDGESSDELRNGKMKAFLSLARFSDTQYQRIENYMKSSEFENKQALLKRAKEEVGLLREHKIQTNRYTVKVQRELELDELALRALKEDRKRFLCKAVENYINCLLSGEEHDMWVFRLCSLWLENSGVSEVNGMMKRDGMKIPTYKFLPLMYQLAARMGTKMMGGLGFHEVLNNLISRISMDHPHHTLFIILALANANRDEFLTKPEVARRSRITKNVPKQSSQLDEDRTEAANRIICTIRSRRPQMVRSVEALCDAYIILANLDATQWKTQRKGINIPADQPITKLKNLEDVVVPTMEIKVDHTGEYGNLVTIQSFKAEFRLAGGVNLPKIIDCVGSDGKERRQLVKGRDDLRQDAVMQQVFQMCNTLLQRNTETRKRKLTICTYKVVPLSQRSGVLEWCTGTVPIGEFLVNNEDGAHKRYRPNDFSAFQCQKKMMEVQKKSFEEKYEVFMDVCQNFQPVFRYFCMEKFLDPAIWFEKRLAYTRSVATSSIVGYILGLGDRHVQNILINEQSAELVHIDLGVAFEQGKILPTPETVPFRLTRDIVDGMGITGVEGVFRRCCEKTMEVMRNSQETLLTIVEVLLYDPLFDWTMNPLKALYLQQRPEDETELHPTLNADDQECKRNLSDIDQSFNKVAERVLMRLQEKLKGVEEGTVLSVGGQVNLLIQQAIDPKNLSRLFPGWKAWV

Row | SMILES | IC50 [µM]
1 | CC(C)(C)OC(=O)n1cc(-c2cncc(CNc3ccc4c(c3)Sc3cccc(-c5cc(N6CCOCC6)cc(=O)[nH]5)c3S4)c2)cn1 [Example 1-44-6, tert-Butyl 4-(5-(((6-(4-morpholino-6-oxo-1,6-dihydropyridin-2-yl)thianthren-2-yl)amino)methyl)pyridin-3-yl)-1H-pyrazole-1-carboxylate] | < 0.1
2 | CC(Nc1ccc2c(c1)Sc1cccc(-c3cc(N4CCOCC4)cc(=O)[nH]3)c1S2)c1cccc(CN2CCCC2)n1 (stereo not drawn) [Example 1-12-110, 4-Morpholino-6-(7-((1-(6-(pyrrolidin-1-ylmethyl)pyridin-2-yl)ethyl)amino)thianthren-1-yl)pyridin-2 (1H)-one] | 0.5 to 2
3 | Nc1ccc2c(c1)Sc1cccc(-c3cc(N4CCOCC4)cc(=O)[nH]3)c1O2 [Example 4-2, 6-(8-Aminophenoxathiin-4-yl)-4-morpholinopyridin-2(1H)-one] | 0.1 to 0.5
4 | COc1ccnc(C(C)Nc2ccc3c(c2)Cc2ccnc(-c4cc(N5CCOCC5)cc(=O)[nH]4)c2O3)c1 (stereo not drawn) [Example 2-41-14] | 0.1 to 0.5
5 | O=c1cc(N2CCOCC2)cc(-c2cccc3c2Oc2ccc(NCc4cscn4)cc2C3)[nH]1 [Example 2-14-36, 4-Morpholino-6-(7-((thiazol-4-ylmethyl)amino)-9H-xanthen-4-yl) pyridin-2(1H)-one] | 0.1 to 0.5
6 | Cc1ccc(CNc2ccc3c(c2)Cc2ccnc(-c4cc(N5CCOCC5)cc(=O)[nH]4)c2O3)cn1 [Example 2-42-4, 6-(7-(((6-Methylpyridin-3-yl)methyl)amino)-5H-chromeno[2,3-c]pyridin-1-yl)-4-morpholinopyridin-2(1H)-one] | 0.1 to 0.5
7 | COc1ccncc1CNc1ccc2c(c1)Sc1cccc(-c3cc(N4CCOCC4)cc(=O)[nH]3)c1O2 [Example 4-8-10, 6-(8-(((4-Methoxypyridin-3-yl)methyl)amino)phenoxathiin-4-yl)-4-morpholino pyridin-2(1H)-one] | 0.1 to 0.5
8 | O=c1cc(N2CCOCC2)cc(-c2cccc3c2Oc2ccc(NCc4nccs4)cc2C3)[nH]1 [Example 2-14-31, 4-Morpholino-6-(7-((thiazol-2-ylmethyl)amino)-9H-xanthen-4-yl) pyridin-2(1H)-one] | 0.1 to 0.5
9 | O=c1cc(N2CCOCC2)cc(-c2cccc3c2Sc2ccc(NCc4cnccn4)cc2C3)[nH]1 [Example 3-8-5, 4-Morpholino-6-(7-((pyrazin-2-ylmethyl)amino)-9H-thioxanthen-4-yl)pyridin-2 (1H)-one] | 0.5 to 2
10 | O=c1cc(N2CCOCC2)cc(-c2cccc3c2Sc2ccc(NC4CN(Cc5cccnc5)C4)cc2S3)[nH]1 [Example 1-24-21, 4-Morpholino-6-(7-((1-(pyridin-3-ylmethyl)azetidin-3-yl)amino)thianthren-1-yl)pyridin-2(1H)-one] | 0.1 to 0.5
11 | CN1CCC[C@H]1CNc1ccc2c(c1)Sc1cccc(-c3cc(N4CCOCC4)cc(=O)[nH]3)c1S2 [Example 1-3, (S)-6-(7-(((1-methylpyrrolidin-2-yl)methyl)amino)thianthren-1-yl)-4-morpholinopyridin-2(1H)-one] | 0.1 to 0.5
12 | CCOC(=O)c1ccc(CNc2ccc3c(c2)Sc2cccc(-c4cc(N5CCOCC5)cc(=O)[nH]4)c2S3)nc1 [Example 1-12-112, Ethyl 6-(((6-(4-morpholino-6-oxo-1,6-dihydropyridin-2-yl)thianthren-2-yl)amino)methyl)nicotinate] | 0.1 to 0.5
13 | CC(Nc1ccc2c(c1)Cc1cccc(-c3cc(N4CCOCC4)cc(=O)[nH]3)c1O2)c1cc(CF)ncn1 (stereo not drawn) [Example 2-14-65, 6-(7-((1-(6-(Fluoromethyl)pyrimidin-4-yl)ethyl)amino)-9H-xanthen-4-yl)-4-morpholino pyridin-2(1H)-one] | 0.1 to 0.5
14 | O=c1cc(N2CCOCC2)cc(-c2cccc3c2Oc2ccc(NCC4CCN(c5ccncc5)CC4)cc2C3)[nH]1 [Example 2-21-5] | 0.5 to 2
15 | O=C1CCN1c1cncc(CNc2ccc3c(c2)Cc2cccc(-c4cc(N5CCOCC5)cc(=O)[nH]4)c2O3)c1 [Example 2-2-70, 4-Morpholino-6-(7-(((5-(2-oxoazetidin-1-yl)pyridin-3-yl)methyl)amino)-9H-xanthen-4-yl)pyridin-2(1H)-one] | 0.1 to 0.5
